Drawing on PubChem BioAssay (NCI), this text covers GI50 and TGI for 22 compounds.

Where “and” joins values, the source holds several entries; their conditions need not be identical. Identical values can stand only once.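 Test compounds were applied to cells in 96-well plates for 48 hours at 5 doses. At the GI50, growth is halved. TGI marks complete inhibition of growth.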 Where only a bound is given, the exact number is not on record here.

One test has as its system MCF7 breast. The test can be described thus: NCI anticancer screen, dose series, 48 h.
On to `COC1=CC(c2ccc[nH]2)=N/C1=C\c1[nH]c(C)c(C(=O)OC(C)C)c1C`, for which the GI50 is 0.0487 µM and the TGI was determined as 1.9 µM.

On to `CC/C=C\CCC/C=C1/C(=O)C=C[C@@H]1C/C=C\CCCC(=O)OC`, for which the GI50 is 2.69 µM and the TGI was 13.9 µM.

In the case of `COC1=CC(=O)c2nc(-c3ccncc3)[nH]c2C1=O`, the GI50 was above 100 µM and the TGI is above 100 µM.

Consider `NC(=O)c1cccc2cn(-c3ccc([C@@H]4CCCNC4)cc3)nc12`, for which the GI50 is 6.59 µM and the TGI stood at 23.9 µM.

For `c1ccc2cc(-c3cc(-c4cc(-c5ccc6ccccc6c5)on4)no3)ccc2c1`, the TGI was above 100 µM.

Turning to `O=C(Nc1ccc(Cl)c(Cl)c1)Nc1ccc(Cl)c(Cl)c1`, the GI50 was 2.61 µM and 2.78 µM; the TGI is 12 µM and 11.6 µM.

With `COc1ccc2c(c1)/C(=C/c1c(C)nc3sc(C)nn13)C(=O)N2`, the GI50 is 1.61 µM and the TGI is above 100 µM.

As to `C=C(CN1CCN(c2ccc(Cl)cc2F)CC1)c1ccc(C(=O)Nc2ccccc2N)cc1`, the GI50 was 3.08 µM and the TGI was above 100 µM.

Turning to `Cc1ccc(NC2=C(Cl)C(=O)N(Cc3ccccc3)C2=O)cc1O`, the GI50 is 32.2 µM and the TGI was above 100 µM.

With `CCCCOC(=O)C1OC(O[C@H]2CCC3(C)C(CCC4(C)C3CC=C3C5CC(C)(C)CCC5(C(=O)O)CC[C@]34C)C2(C)C)C(OC2OC(CO)C(O)C(O)C2O)C(OC2OC(CO)C(O)C(O)C2O)C1O` (some centres not stated), the GI50 is 38.4 µM and the TGI is above 100 µM.

Turning to `COc1cc(Cc2cnc(/N=C3\C(=O)N(CN4CCN(c5c(F)cc6c(=O)c(C(=O)O)cn(C7CC7)c6c5OC)CC4C)c4ccc(F)cc43)nc2N)cc(OC)c1OC` (configuration not stated), the GI50 is 8.35 µM and the TGI came out at 52.8 µM.

In turn, `NNC(=O)Nc1cccnc1` gave a TGI above 100 µM.

The subject of a further test is BT-549 breast. The test can be described thus: NCI anticancer screen, dose series, 48 h.
With `CCOC(=O)[C@]1(OC(C)=O)C[C@H](OC(C)=O)[C@@H](C(F)COP(=O)(OCc2ccccc2)OCc2ccccc2)O1` (some centres not stated), the TGI was above 100 µM.

Consider `CC[C@@]1(O)C[C@H](OC2CC(N(C)C)C(O)C(C)O2)c2c(O)c3c(c(O)c2[C@H]1OC1CC(N(C)C)C(O)C(C)O1)C(=O)c1cccc(O)c1C3=O` (some centres not stated), for which the GI50 is below 0.01 µM; the TGI was 0.293 µM and 0.102 µM.

Consider `O=C(Nc1ccccc1)NS(=O)(=O)c1ccc(-n2nc3c(c2-c2cccs2)Cc2ccccc2-3)cc1`, for which the GI50 was 24.1 µM and the TGI is 67.9 µM.

Take `CCCCCN(CCCCC)CC(O)c1cc(C)c2ccc3cc(C(C)C)ccc3c2c1` (configuration not stated): the GI50 is 1.85 µM and the TGI came out at 3.51 µM.

In the case of `CC(C)CCC[C@@H](C)[C@H]1CC[C@H]2[C@@H]3CC=C4C[C@@H](C(C(=O)O)C(=O)O)CC[C@]4(C)[C@H]3CC[C@]12C`, the GI50 was 0.197 µM and the TGI was 2.21 µM.

For the compound `COc1ccc(-c2nc3sccn3c2/C(N)=N/C(=N)N)cc1OC`, the GI50 was 22.8 µM and the TGI stood at 43.3 µM.

Consider `CC1=C(C(=O)Nc2ccc(Cl)c(Cl)c2)C(c2cccc(Oc3ccccc3)c2)NC(=S)N1` (configuration not stated), for which the GI50 is 5.94 µM and the TGI was 12.5 µM.

Compound `Nc1ccccc1SC(C[N+](=O)[O-])c1ccc2c(c1)OCO2` (configuration not stated) returned a TGI of 15.2 µM.

As for `COC1=CC(c2ccc[nH]2)=N/C1=C\c1[nH]c(C)c(C(=O)OC(C)C)c1C`, the GI50 was 0.061 µM and the TGI amounted to 2.68 µM.

Turning to `COC1=CC(=O)c2nc(-c3ccncc3)[nH]c2C1=O`, the GI50 is above 100 µM and the TGI is above 100 µM.

As to `NC(=O)c1cccc2cn(-c3ccc([C@@H]4CCCNC4)cc3)nc12`, the GI50 is 18.8 µM and the TGI was determined as 40.9 µM.

`c1ccc2cc(-c3cc(-c4cc(-c5ccc6ccccc6c5)on4)no3)ccc2c1` showed a TGI above 100 µM.

For `O=C(Nc1ccc(Cl)c(Cl)c1)Nc1ccc(Cl)c(Cl)c1`, the GI50 is 1.72 µM and 4.01 µM; the TGI is 5.96 µM and 31.6 µM.

As for `COc1ccc2c(c1)/C(=C/c1c(C)nc3sc(C)nn13)C(=O)N2`, the GI50 is 5.69 µM and the TGI was above 100 µM.

Consider `C=C(CN1CCN(c2ccc(Cl)cc2F)CC1)c1ccc(C(=O)Nc2ccccc2N)cc1`, for which the GI50 is 2.99 µM and the TGI was above 65.3 µM.

For `CCCCOC(=O)C1OC(O[C@H]2CCC3(C)C(CCC4(C)C3CC=C3C5CC(C)(C)CCC5(C(=O)O)CC[C@]34C)C2(C)C)C(OC2OC(CO)C(O)C(O)C2O)C(OC2OC(CO)C(O)C(O)C2O)C1O` (some centres not stated), the GI50 is 21.5 µM and the TGI came to 41.6 µM.

As for `COc1cc(Cc2cnc(/N=C3\C(=O)N(CN4CCN(c5c(F)cc6c(=O)c(C(=O)O)cn(C7CC7)c6c5OC)CC4C)c4ccc(F)cc43)nc2N)cc(OC)c1OC` (configuration not stated), the GI50 is 19.7 µM and the TGI amounted to 49.2 µM.

`O=C1/C(=C/c2cccc([N+](=O)[O-])c2)COc2ccc(O)cc21`: the GI50 is 2.19 µM and the TGI worked out at 4.46 µM.

The test system of the next test is MDA-MB-435. The test can be described thus: NCI anticancer screen, dose series, 48 h.
For the compound `CCOC(=O)[C@]1(OC(C)=O)C[C@H](OC(C)=O)[C@@H](C(F)COP(=O)(OCc2ccccc2)OCc2ccccc2)O1` (some centres not stated), the GI50 was 18.3 µM and 79.2 µM; the TGI is 38.2 µM and > 100 µM.

`CC[C@@]1(O)C[C@H](OC2CC(N(C)C)C(O)C(C)O2)c2c(O)c3c(c(O)c2[C@H]1OC1CC(N(C)C)C(O)C(C)O1)C(=O)c1cccc(O)c1C3=O` (some centres not stated): the GI50 is below 0.01 µM; the TGI was 0.123 µM and 0.0187 µM.

Regarding `CC1(C)CCc2c(c3c(c4c(=O)c(O)c(-c5ccc(O)cc5)oc24)OC(C)(C)CC3)O1`, the GI50 is above 100 µM and the TGI was above 100 µM.

`O=C(Nc1ccccc1)NS(=O)(=O)c1ccc(-n2nc3c(c2-c2cccs2)Cc2ccccc2-3)cc1`: the GI50 was 22.1 µM and the TGI was 58.3 µM.

With `CCCCCN(CCCCC)CC(O)c1cc(C)c2ccc3cc(C(C)C)ccc3c2c1` (configuration not stated), the GI50 was 1.72 µM and the TGI is 3.21 µM.

`CC(C)CCC[C@@H](C)[C@H]1CC[C@H]2[C@@H]3CC=C4C[C@@H](C(C(=O)O)C(=O)O)CC[C@]4(C)[C@H]3CC[C@]12C`: the GI50 is 0.0721 µM and the TGI turned out to be 0.188 µM.

In the case of `COc1ccc(-c2nc3sccn3c2/C(N)=N/C(=N)N)cc1OC`, the GI50 was 33.1 µM and the TGI was above 100 µM.

Consider `CC1=C(C(=O)Nc2ccc(Cl)c(Cl)c2)C(c2cccc(Oc3ccccc3)c2)NC(=S)N1` (configuration not stated), for which the GI50 is 7.55 µM and the TGI is 14.2 µM.

In turn, `Nc1ccccc1SC(C[N+](=O)[O-])c1ccc2c(c1)OCO2` (configuration not stated) showed a TGI of 9.35 µM.

`COC1=CC(c2ccc[nH]2)=N/C1=C\c1[nH]c(C)c(C(=O)OC(C)C)c1C`: the GI50 is 0.0349 µM and the TGI came to 0.386 µM.

Consider `CC/C=C\CCC/C=C1/C(=O)C=C[C@@H]1C/C=C\CCCC(=O)OC`, for which the GI50 was 2.49 µM and the TGI came out at 6.39 µM.

For `COC1=CC(=O)c2nc(-c3ccncc3)[nH]c2C1=O`, the GI50 was above 100 µM and the TGI was above 100 µM.

In the case of `NC(=O)c1cccc2cn(-c3ccc([C@@H]4CCCNC4)cc3)nc12`, the GI50 was 12.7 µM and the TGI amounted to 26.5 µM.

Compound `c1ccc2cc(-c3cc(-c4cc(-c5ccc6ccccc6c5)on4)no3)ccc2c1` had a TGI above 100 µM.

Take `O=C(Nc1ccc(Cl)c(Cl)c1)Nc1ccc(Cl)c(Cl)c1`: the GI50 is 3.06 µM and 2.8 µM; the TGI is 11.4 µM and 8.8 µM.

Consider `Cc1ccc(NC2=C(Cl)C(=O)N(Cc3ccccc3)C2=O)cc1O`, for which the GI50 is 29 µM and the TGI was above 100 µM.

Regarding `CCCCOC(=O)C1OC(O[C@H]2CCC3(C)C(CCC4(C)C3CC=C3C5CC(C)(C)CCC5(C(=O)O)CC[C@]34C)C2(C)C)C(OC2OC(CO)C(O)C(O)C2O)C(OC2OC(CO)C(O)C(O)C2O)C1O` (some centres not stated), the GI50 is 30.6 µM and the TGI was 81 µM.

For `COc1cc(Cc2cnc(/N=C3\C(=O)N(CN4CCN(c5c(F)cc6c(=O)c(C(=O)O)cn(C7CC7)c6c5OC)CC4C)c4ccc(F)cc43)nc2N)cc(OC)c1OC` (configuration not stated), the GI50 was 14.2 µM and the TGI was 32.9 µM.

With `O=C1/C(=C/c2cccc([N+](=O)[O-])c2)COc2ccc(O)cc21`, the GI50 was 1.91 µM and the TGI was 4.05 µM.

Regarding `NNC(=O)Nc1cccnc1`, the TGI was above 100 µM.
